Experimental data published in ChEMBL document CHEMBL1201862, “PubChem BioAssay data set” (2004).
Values joined by “and” are separate entries in the source; they are usually repeats but may differ in a detail not shown here. Identical values can stand only once.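 Method: 48-hour compound exposure of cells in 96-well plates, five concentrations, linear interpolation of endpoints. GI50 marks 50% less growth.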 Active and inactive are the calls of the source. Rule as the data show it: active = GI50 up to about 1.1 µM and inactive = higher.

Assays:
Assay in all cases: NCI anticancer screen, dose series, 48 h
HCC 2998 = system: HCC 2998
SN12C = system: SN12C
OVCAR-8 = system: OVCAR-8
SF-539 = system: SF-539
CAKI-1 = system: CAKI-1
CCRF-CEM = system: CCRF-CEM
SK-MEL-5 = system: SK-MEL-5
SK-OV-3 = system: SK-OV-3
PC-3 = system: PC-3
RPMI-8226 = system: RPMI-8226
SNB-75 = system: SNB-75
NCI/ADR-RES = system: NCI/ADR-RES
DU-145 = system: DU-145
A549 = system: A549
K562 = system: K562
MDA-N = system: MDA-N
SK-MEL-28 = system: SK-MEL-28
MOLT-4 = system: MOLT-4
BT-549 = system: BT-549
Hs-578T = system: Hs-578T
UACC-257 = system: UACC-257
SF-268 = system: SF-268
HOP-62 = system: HOP-62
NCI-H226 = system: NCI-H226
HOP-92 = system: HOP-92
MDA-MB-231 = system: MDA-MB-231
SW-620 = system: SW-620
NCI-H460 = system: NCI-H460
U-251 = system: U-251
OVCAR-3 = system: OVCAR-3
SNB-19 = system: SNB-19
UACC-62 = system: UACC-62
OVCAR-5 = system: OVCAR-5
HCT-116 = system: HCT-116
NCI-H23 = system: NCI-H23
RXF 393 = system: RXF 393
M14 = system: M14
SK-MEL-2 = system: SK-MEL-2
ACHN = system: ACHN
LOX IMVI = system: LOX IMVI
OVCAR-4 = system: OVCAR-4
HT-29 = system: HT-29
KM12 = system: KM12
SR = system: SR
COLO 205 = system: COLO 205
786-0 = system: 786-0
T47D = system: T47D
MDA-MB-435 = system: MDA-MB-435
HCT-15 = system: HCT-15
IGROV-1 = system: IGROV-1
HL-60 = system: HL-60
A498 = system: A498

With `CCOC(=O)[C@]1(OC(C)=O)C[C@H](OC(C)=O)[C@@H](C(F)COP(=O)(OCc2ccccc2)OCc2ccccc2)O1` (stereo partly drawn) the GI50 (HCC 2998) was 76.2 µM (inactive), the GI50 (SN12C) was > 100 µM (inactive) and the GI50 (OVCAR-8) was > 100 µM (inactive). The GI50 (SF-539) was > 100 µM (inactive), the GI50 (CAKI-1) was > 100 µM (inactive) and the GI50 (CCRF-CEM) was 72.9 µM (inactive) and 49 µM (inactive). The GI50 (SK-MEL-5) was > 100 µM (inactive), the GI50 (SK-OV-3) was > 100 µM (inactive) and the GI50 (PC-3) was 32.4 µM (inactive) and 58.6 µM (inactive). For the same compound, the GI50 (RPMI-8226) was 19.8 µM (inactive) and 25.9 µM (inactive), the GI50 (SNB-75) was > 100 µM (inactive) and the GI50 (NCI/ADR-RES) was > 100 µM (inactive). The GI50 (DU-145) was > 100 µM (inactive), the GI50 (A549) was > 100 µM (inactive) and the GI50 (K562) was 71.4 µM (inactive). For the same compound, the GI50 (MDA-N) was > 100 µM (inactive), the GI50 (SK-MEL-28) was > 100 µM (inactive) and the GI50 (MOLT-4) was > 100 µM (inactive). The GI50 (BT-549) was > 100 µM (inactive), the GI50 (Hs-578T) was > 100 µM (inactive) and the GI50 (UACC-257) was 76.2 µM (inactive). For the same compound, the GI50 (SF-268) was > 100 µM (inactive), the GI50 (HOP-62) was > 100 µM (inactive) and the GI50 (NCI-H226) was > 100 µM (inactive). The GI50 (HOP-92) was 18.5 µM (inactive) and the GI50 (MDA-MB-231) was 57.3 µM (inactive).
With `COc1cc2c(cc1NC(=O)c1ccccc1)c1c(n2S(=O)(=O)c2ccccc2)CCN(S(=O)(=O)c2ccccc2)C1` the GI50 (HCC 2998) was > 100 µM (inactive), the GI50 (SW-620) was > 100 µM (inactive) and the GI50 (OVCAR-8) was > 100 µM (inactive). For the same compound, the GI50 (NCI-H460) was > 100 µM (inactive), the GI50 (U-251) was > 100 µM (inactive) and the GI50 (OVCAR-3) was > 100 µM (inactive). The GI50 (SNB-19) was > 100 µM (inactive), the GI50 (CCRF-CEM) was > 100 µM (inactive) and the GI50 (UACC-62) was > 100 µM (inactive). For the same compound, the GI50 (SK-MEL-5) was > 100 µM (inactive), the GI50 (OVCAR-5) was > 100 µM (inactive) and the GI50 (SK-OV-3) was > 100 µM (inactive). For the same compound, the GI50 (PC-3) was > 100 µM (inactive), the GI50 (HCT-116) was > 100 µM (inactive) and the GI50 (NCI-H23) was > 100 µM (inactive). For the same compound, the GI50 (RPMI-8226) was > 100 µM (inactive), the GI50 (RXF 393) was > 100 µM (inactive) and the GI50 (SNB-75) was > 100 µM (inactive). The GI50 (NCI/ADR-RES) was > 100 µM (inactive), the GI50 (DU-145) was > 100 µM (inactive) and the GI50 (A549) was > 100 µM (inactive). For the same compound, the GI50 (M14) was > 100 µM (inactive), the GI50 (SK-MEL-2) was > 100 µM (inactive) and the GI50 (ACHN) was > 100 µM (inactive). For the same compound, the GI50 (LOX IMVI) was > 100 µM (inactive), the GI50 (OVCAR-4) was > 100 µM (inactive) and the GI50 (HT-29) was > 100 µM (inactive). The GI50 (K562) was > 100 µM (inactive), the GI50 (KM12) was > 100 µM (inactive) and the GI50 (SK-MEL-28) was > 100 µM (inactive). The GI50 (SR) was > 100 µM (inactive), the GI50 (COLO 205) was > 100 µM (inactive) and the GI50 (786-0) was > 100 µM (inactive). The GI50 (MOLT-4) was > 100 µM (inactive), the GI50 (BT-549) was > 100 µM (inactive) and the GI50 (T47D) was 22.1 µM (inactive). The GI50 (MDA-MB-435) was > 100 µM (inactive), the GI50 (HCT-15) was greater than 100 µM and the GI50 (Hs-578T) was > 100 µM (inactive). For the same compound, the GI50 (UACC-257) was > 100 µM (inactive), the GI50 (SF-268) was > 100 µM (inactive) and the GI50 (HOP-62) was > 100 µM (inactive). The GI50 (NCI-H226) was > 100 µM (inactive), the GI50 (IGROV-1) was > 100 µM (inactive) and the GI50 (HOP-92) was > 100 µM (inactive). The GI50 (HL-60) was > 100 µM (inactive) and the GI50 (A498) was > 100 µM (inactive).
